Target: T1, heparanase (Homo sapiens, UniProt Q9Y251)
T1 sequence (Q9Y251 158-543 limits assumed): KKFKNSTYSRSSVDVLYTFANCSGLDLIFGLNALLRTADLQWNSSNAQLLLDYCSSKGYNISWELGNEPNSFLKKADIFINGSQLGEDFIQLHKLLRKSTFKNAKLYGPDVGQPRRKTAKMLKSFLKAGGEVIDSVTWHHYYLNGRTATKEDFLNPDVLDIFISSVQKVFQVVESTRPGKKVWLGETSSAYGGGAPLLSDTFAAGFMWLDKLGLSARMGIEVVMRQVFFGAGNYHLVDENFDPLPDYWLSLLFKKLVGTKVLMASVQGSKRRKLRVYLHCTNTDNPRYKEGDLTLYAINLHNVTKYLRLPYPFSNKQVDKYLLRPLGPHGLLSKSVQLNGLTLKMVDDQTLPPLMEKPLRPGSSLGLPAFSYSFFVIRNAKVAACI
T1 sequence (Q9Y251 36-109 limits assumed): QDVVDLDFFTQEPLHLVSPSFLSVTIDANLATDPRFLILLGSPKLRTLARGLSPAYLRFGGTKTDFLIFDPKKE
Assay: Heparanase inhibition (IC50)
Assay type: biochemical
Conditions: Heparanase inhibition IC50
Description: Heparanase inhibition was determined using standard methods and the results expressed as the half maximal inhibitory concentration (IC50) being the concentration of the compound of the invention required to achieve 50% inhibition of heparanase.

| Molecule | IC50 |
| --- | --- |
| COc1cc2[nH]c(=S)n(CCn3cc(C(=O)NCCN4CCOCC4)c4ccccc43)c(=N)c2cc1OC [BT2104] | 44.8 µM |

Same assay, conditions: read-out: Heparanase inhibition IC50

| Molecule | IC50 |
| --- | --- |
| COc1ccc2[nH]cc(CCn3c(=S)[nH]c4cc(OC)c(OC)cc4c3=N)c2c1 [BT2046] | 9.4 µM |
| COc1cc2[nH]c(=S)n(CCc3c[nH]c4ccccc34)c(=N)c2cc1OC [BT2044] | 30 µM |
| COc1cc2[nH]c(=S)n(CCc3cn(C)c4ccccc34)c(=N)c2cc1OC [BT2024] | 27.4 µM |
| COc1ccc(OC)c(Cn2c(=S)[nH]c3cc(OC)c(OC)cc3c2=N)c1 [BT2022] | 37.2 µM |
| COc1ccc2[nH]c(=S)n(CCc3c[nH]c4ccccc34)c(=N)c2c1 [BT2014] | 49.3 µM |
| COc1cc2[nH]c(=S)n(CCc3c[nH]c4ccccc34)c(=N)c2cc1OC [BT2012] | 14.8 µM |
| COc1cc2[nH]c(=S)n(CCNC(=O)c3cc4cc(-c5ccc(N6CCN(C)CC6)nc5)ccc4[nH]3)c(=N)c2cc1OC [BT2075] | 20.6 µM |
| COc1ccc(Cn2c(=S)[nH]c3cc(OC)c(OC)cc3c2=N)c(OC)c1 [BT2027] | 40.1 µM |
| COc1cc2[nH]c(=S)n(CCc3c[nH]c4ccc(-c5cccnc5)cc34)c(=N)c2cc1OC [BT2055] | 19.1 µM |
| COc1cc2[nH]c(=S)n(CCNC(=O)c3cc4ccc(-c5ccc(C(=O)N6CCN(C)CC6)cc5)cc4[nH]3)c(=N)c2cc1OC [BT2073] | 51 µM |

Now from value to molecule:

| IC50 | Molecule |
| --- | --- |
| 13 µM | COc1cc2nc(SCc3ccc(C(F)(F)F)cc3)n(C3CN(C(=O)c4cc5ccc(-c6cccnc6)cc5[nH]4)C3)c(=N)c2cc1OC [BT2139] |
| 15.6 µM | COc1cc2[nH]c(=S)n(CCNC(=O)c3ccc(-c4ccccc4)nc3)c(=N)c2cc1OC [BT2125] |
| 33 µM | COc1cc2nc(SC)n(C3CN(C(=O)c4cc5ccc(-c6cccnc6)cc5[nH]4)C3)c(=N)c2cc1OC [BT2143] |
| 59.9 µM | COc1cc2[nH]c(=S)n(CCNC(=O)c3nnc(-c4ccccc4)o3)c(=N)c2cc1OC [BT2144] |
| 23.6 µM | COc1cc2nc(SC)n(C3CN(C(=O)c4cc5ccc(-c6cccnc6)cc5[nH]4)C3)c(=N)c2cc1OC [BT2141] |
| 19.7 µM | COc1cc2[nH]c(=S)n(CCNC(=O)c3cccc(-c4ccccc4)n3)c(=N)c2cc1OC [BT2115] |
| 90.4 µM | COc1cc2[nH]c(=O)n(CCNC(=O)c3cc4cc(C(=O)N5CCC5)ccc4[nH]3)c(=N)c2cc1OC [BT2080] |
| 64 µM | COc1cc2nc(SCc3ccccc3)n(CCNC(=O)c3cc4ccccc4[nH]3)c(=N)c2cc1OC [BT2135] |
| 35 µM | COc1cc2[nH]c(=S)n(CCNC(=O)c3cc4cc(C(=O)N5CCOCC5)ccc4[nH]3)c(=N)c2cc1OC [BT2082] |
| 90.4 µM | COc1cc2[nH]c(=O)n(CCNC(=O)c3cc4cc(C(=O)N5CCOCC5)ccc4[nH]3)c(=N)c2cc1OC [BT2081] |
| 58.6 µM | COc1cc2[nH]c(=S)n(CCNC(=O)c3nnc(-c4ccccc4)o3)c(=N)c2cc1OC [BT2132] |
| 12.8 µM | COc1cc2[nH]c(=S)n(CCNC(=O)c3cccc(-c4ccc(C(=O)N5CCN(C)CC5)cc4)n3)c(=N)c2cc1OC [BT2116] |
| 7 µM | COc1cc2nc(SCc3ccc(OC(F)(F)F)cc3)n(C3CN(C(=O)c4cc5ccc(-c6cccnc6)cc5[nH]4)C3)c(=N)c2cc1OC [BT2142] |
| 37.5 µM | COc1cc2nc(SCc3ccc(C(F)(F)F)cc3)n(C3CN(C(=O)c4cc5ccc(-c6cccnc6)cc5[nH]4)C3)c(=N)c2cc1OC [BT2140] |
| 34.8 µM | COc1cc2[nH]c(=S)n(CCNC(=O)c3cc4cc(-c5cnn(C)c5)ccc4[nH]3)c(=N)c2cc1OC [BT2078] |
| 1.3 µM | COc1cc2[nH]c(=S)n(C3CN(C(=O)c4cc5cc(-c6cccnc6)ccc5[nH]4)C3)c(=N)c2cc1OC [BT2085] |
| 12.4 µM | COc1cc2[nH]c(=S)n(CCNC(=O)c3cc4ccc(-c5ccc(N6CCN(C)CC6)nc5)cc4[nH]3)c(=N)c2cc1OC [BT2076] |
| 22 µM | COc1cc2nc(SCc3ccc(OC(F)(F)F)cc3)n(C3CN(C(=O)c4cc5ccc(-c6cccnc6)cc5[nH]4)C3)c(=N)c2cc1OC [BT2145] |
| 12.5 µM | COc1cc2[nH]c(=S)n(CCNC(=O)c3cccc(-c4ccc5nonc5c4)n3)c(=N)c2cc1OC [BT2117] |

Test system: db/db mice
Assay: Insulin content in pancreas sections/islets of db/db mice (Type 2 diabetes model), anti-insulin antibody staining
Assay type: in vivo, mouse
Conditions: 50 mg/kg daily intraperitoneal injection, versus saline treated db/db and wild-type mice
Description: FIG. 5. Insulin content in pancreas sections in db/db mice a model of Type 2 diabetes. Mice were treated daily with 50 mg/kg PI-88 IP from 4 weeks of age. Onset of clinical diabetes was determined by measuring urine glucose twice weekly with Multistix reagent strips and confirmed by measuring non-fasting blood glucose levels in tail vein blood using a MediSense glucometer with hyperglycemia defined as 2 consecutive blood glucose readings of 16 mmol/I or greater. Insulin was detected by anti-insulin antibody staining.
The db/db mouse has defective leptin signalling resulting from a point mutation in the leptin receptor gene. Plasma insulin levels become elevated very early in life (10-14 days of age), and the affected animals are obese by the time they are 3-4 weeks old. The animals are insulin resistant, hypertriglyceridemic, and have impaired glucose tolerance.
db/db mice were treated with saline or 50 mg/kg of PI-88 by daily intraperitoneal injection. At the cessation of treatment pancreatic islets were isolated and stained for insulin and the level of insulin expression assessed by quantitative morphometric analyses.

| Molecule | Expression of insulin in islets (quantitative morphometric analyses) |
| --- | --- |
| PI-88 | increased compared to the saline treated db/db mice and is near to the level of insulin expression in the wild-type mice |

Test system: RIP-OVAhi mice
Assay: Adoptive transfer of Type 1 diabetes in transgenic RIP-OVAhi mice (acute Type 1 diabetes model)
Assay type: in vivo, mouse
Conditions: 10 mg/kg QD, IP, 14 day assay period
Description: FIG. 2. Treatment of RIP-OVA^hi mice from the time of adoptive transfer of OVA-specific OT-1 and activated […] tg T cells with the small molecule heparanase inhibitor BT-2012 (10 mg/kg QD, IP in saline/50% DMSO).
FIG. 3. Treatment of RIP-OVA^hi mice from the time of adoptive transfer of OVA-specific OT-1 and activated OT-II tg T cells with a control heparanase inhibitor, (denoted “BT-1055”) (10 mg/kg QD, IP in saline/20% DMSO).
In NOD mice, the autoimmune disease process develops slowly because of the asynchronous destruction of the beta cells in different islets. Indeed Type 1 diabetes develops only after >90% of the total islet beta cell mass has been destroyed. The slow course of the disease in NOD mice offers realistic potential for immune intervention but, unfortunately, high throughput screening of test drugs is not feasible. A more acute model of diabetes can be induced experimentally using RIP-OVAhi transgenic mice which express a foreign ovalbumin (OVA) peptide, under the control of the rat insulin promoter (RIP), only in islet beta cells. Following adoptive transfer of naïve OVA specific CD8+ (OT-I) and activated OVA-specific CD4+ (OT-II) transgenic T cells, the transgenic T cells traffic to the host lymph nodes where the OT-I T cells become activated and then to the OVA-expressing pancreatic islets where they rapidly induce islet beta cell destruction and diabetes, all mice succumbing to rapid onset of high blood glucose levels (hyperglycaemia) in the second week after cell transfer. […]
Using the RIP-OVAhi transgenic mice the effect of a heparanase inhibitor compound (denoted “BT-1055”) was tested for its effect on blood glucose levels. Following adoptive transfer of naïve OVA specific CD8+ (OT-I) and activated OVA-specific CD4+ (OT-II) transgenic T cells into a number of RIP-OVAhi mice blood glucose was monitored regularly over two weeks in populations of mice treated with BT-1055 and a control group administered saline (FIG. 3).

| Molecule | Individual treated mice in which blood glucose remained normal |
| --- | --- |
| COc1cc2[nH]c(=S)n(CCc3c[nH]c4ccccc34)c(=N)c2cc1OC [BT2012] | 50% |

Same assay, conditions: 10 mg/kg QD, IP, from the time of adoptive transfer of OT-I and activated OT-II tg T cells

| Molecule | Incidence of diabetes (blood glucose >12 mmol) reduced |
| --- | --- |
| COc1cc2[nH]c(=S)n(CCc3c[nH]c4ccccc34)c(=N)c2cc1OC [BT2012] | 50% |

Same assay, conditions: 10 mg/kg, by 14 days after transfer

| Molecule | Protection from Type 1 diabetes induction following adoptive transfer of diabetogenic tg T cells |
| --- | --- |
| COc1cc2[nH]c(=S)n(CCc3c[nH]c4ccccc34)c(=N)c2cc1OC [BT2012] | protected RIPOVAhi mice from Type 1 diabetes induction |

Test system: db/db mice
Assay: Intra-islet heparan sulfate content in db/db mice, Alcian blue staining
Assay type: in vivo, mouse
Conditions: 50 mg/kg daily intraperitoneal injection, versus saline treated db/db and wild-type mice
Description: FIG. 6. Intra-islet HS content in pancreas sections in treated db/db mice. Mice were treated daily with 50 mg/kg PI-88 IP from 4 weeks of age. Onset of clinical diabetes was determined by measuring urine glucose twice weekly with Multistix reagent strips and confirmed by measuring non-fasting blood glucose levels in tail vein blood using a MediSense glucometer with hyperglycemia defined as 2 consecutive blood glucose readings of 16 mmol/I or greater. Islet HS was detected by Alcian blue staining.
db/db mice were treated with saline or 50 mg/kg of PI-88 daily by intraperitoneal injection. At the cessation of treatment pancreatic islets were isolated and stained with alcian blue to visualise heparan sulfate and the heparan sulfate content of the islets was assessed by quantitative morphometric analyses.

| Molecule | Islet heparan sulfate levels (quantitative morphometric analyses) |
| --- | --- |
| PI-88 | increased compared to the saline treated db/db mice and are near to the levels of heparan sulfate in the islets of wild-type mice |

Source: patent publication US11787783B2, “Heparanase inhibitors and use thereof” (Beta Therapeutics Pty Ltd, priority 2016, dated 2023)
